# Reference: US8916604B2, “Compositions and methods for epigenetic modification of nucleic acid sequences” (Rutgers, The State University of New Jersey, priority 2011, dated 2014)
# Tests used:
# [1] = system: antioxidant response element (ARE); assay: ARE-luciferase reporter assay with combination index calculation; type: cell-based, human
# Experimental: The stably transfected single clone HepG2-ARE-C8 (HepG2-C8) cell line has been established previously in our laboratory using the […]-luciferase reporter gene. The cells were maintained in Dulbecco's modified Eagle medium supplemented with 10% fetal bovine serum (FBS), 1.17 g/l sodium bicarbonate, and 100 unit/ml penicillin, 100 μg/ml streptomycin at 37° C. in a humidified incubator with 5% CO2. The HepG2-C8 cells were cultured in 12-well plates and each well contained 1 million cells in 1 ml of 10% FRS medium. The cells were treated with compounds for 24 h. The luciferase activity was determined using a luciferase kit from Promega (Madison, USA) according to the manufacturer's instructions. Briefly, after treatments for 24 h, the cells were washed twice with ice-cold phosphate buffered-saline (PBS, pH 7.4) and harvested in 1× reporter lysis buffer and […]. After centrifugation at 4° C., 12000 rpm for 5 min, a 10 μl aliquot of the supernatant was assayed for luciferase activity with a Sirius luminometer (Berthold Detection System GmbH, Pforzheim, Germany). The luciferase activity was normalized against protein concentration, determined by a BCA protein assay (Pierce, Rockford, USA), and expressed as the fold induction over the luciferase activity of control vehicle-treated cells. At least two to three independent studies were conducted in triplicates. To determine the synergistic effect between the combination of two different compounds, the combination index (CI) was calculated with the following formula: […] This approach is based on the Loewe additivity model and although the exact mechanism of interaction may be unknown, this model is one of the most commonly used reference models for evaluating potential drug-drug interactions Lee et al., J Biopharm Stat 2007; 17: 461-480).
# PCNA = assay: IHC staining of TRAMP prostate tissue, cell proliferation; type: in vivo, mouse; details: D-G1 (16 weeks) or D-G2 (12 weeks) vs control
# Experimental: (§1) Sections (4 μm) were cut from the paraffin embedded prostate tissue and mounted on glass slides. The slides Were deparafinized in xylene and antigen unmasking was performed by applying proteinase K digestion directly on the slides for 15 min. Endogenous peroxidase was blocked by incubating in 3% […] for 5 min, and ApopTag Plus Peroxidase In Situ Apoptosis Detection Kit (Millipore, Temecula, Calif., U.S.A.) was used to detect apoptotic cells. For detection of proliferative cells, monoclonal mouse anti-proliferating cell nuclear antigen (PCNA) antibody (Clone PC10, 1:50, Dako North America, Carpinteria, Calif., U.S.A.) was used (12). The staining was performed following as the manufacturer's protocols. Anti-5-methylcytosine (5-MC) mouse monoclone antibody (Clone 162 33 D3, 1:50, EMD Chemicals, Philadelphia, Pa., U.S.A.) was used to detect genome-wide methylated DNA. […] Quantitation of IHC staining was done using the Aperio ScanScope® GL system according to the manufactures protocol (Aperio Technologies Inc., Vista, Calif., U.S.A.). […] The Aperio ImageScopoe software (v 10.1.3.2028) allowed the unbiased quantification and quantitative analysis of the IHC staining of biomarkers of prostate tumor samples obtained from untreated control versus the treated TRAMP mice.
# 5-methylcytosine (5-MC) = assay: IHC staining of TRAMP prostate tissue, global CpG methylation; type: in vivo, mouse; details: D-G1 and D-G2, p<0.001
# Experimental: as §1
# DNMT1 = assay: Western blot in TRAMP C1 cells; type: cell-based, mouse
# Experimental: (§2) The DIM used in the study contains approximately 98% of DIM purchased from Sigma-Aldrich t St. Louis, Mo., USA), TRAMP C1 cells (provided by Dr. Barbara Foster, Department of Pharmacology and Therapeutics, Roswell Park Cancer institute, Buffalo. NY), originally derived from TRAMP prostate tumor, were cultured in Dulbecco's Modified Eagle's Medium (Invitrogen Corp., Carlsbad, Calif. U.S.A.) supplemented with 10% (V/V) fetal bovine serum (FBS) (Invitrogen Corp., Grand Island, N.Y., U.S.A.), penicillin 100 U/ml, and streptomycin 100 μg/ml (Invitrogen Corp., Grand Island, N.Y., U.S.A.), Cells were maintained in a humidified incubator with 5% CO2 at 37° C. Cells were seeded in 10 cm plates for 24 h and then treated with 0.1% DMSO (control) or different concentrations of DIM in 1% FBS containing medium for 5 days. The medium was changed every 2 days (20), The TRAMP C1 cells or dorso-lateral prostate tissues collected from treated and control groups were pooled and homogenized with RIPA buffer (Cell Signaling Technology, Danvers, Mass., U.S.A.) and 10 μg/ml protease inhibitor cocktail (EMD Chemicals, Philadelphia, Pa., U.S.A.). Protein (20 μg) was loaded onto 4-15% SDS-PAGE (Bio-Rad Laboratories, Hercules, Calif., U.S.A.). After separation by SDS-PAGE, the protein was transferred onto nitrocellulose membrane (Millipore Corp., Billerica, Mass., U.S.A.), and then was blocked in 5% bovine serum albumin (BSA) (Fisher Scientific, Fair Law, J. U.S.A.) in tris buffer saline tween-20 (TBST) solution for 1 h. Membranes were probed using the different mono- or polyclonal-antibodies (1:1000) overnight at 4″C. Blots were washed with TBST solution for 15 min 4 times and incubated with the respective secondary antibodies for 1 hr. After washing min 4 times with TBST solution, the immunoreactive bands were determined by adding SuperSignal West Femto mix (1:1 mix of stable peroxide buffer and luminol/enhancer solution (Thermo Scientific, Rockford, Ill., U.S.A.) to detect immunoreactive bands. The bands were visualized and quantified by BioRad ChemiDoc XRS system (Hercules, Calif., U.S.A.). The primary antibodies used were β-actin, Nrf2, NQO1 (Santa Cruz Biotechnology, Santa Cruz, Calif., U.S.A.), HDAC1, HDAC2, HDAC3, HDAC4 (Cell Signaling Technology Inc., Danvers Mass., U.S.A.), HDAC8 (Proteintech Group Inc., Chicago, Ill., U.S.A.) and DNMT1, DNMT3a, DNMT3b (Imgenex, San Diego, Calif., U.S.A.). The secondary antibodies used were goat polyclonal IgG for β-actin and NQO1, rabbit polyclonal IgG for Nrf2, HDAC1, HDAC2, HDAC3, HDAC4 and HDAC8, and mouse polyclonal IgG for DNMT1, DNMT3a, DNMT3b (Santa Cruz Biotechnology, Santa Cruz, Calif., U.S.A.),
# NQO1 = assay: Western blot in TRAMP C1 cells; type: cell-based, mouse
# Experimental: as §2
# Nrf2 = assay: Western blot in TRAMP C1 cells; type: cell-based, mouse
# Experimental: as §2
# [2] = oral, 2 mg/kg/day; cited from earlier work
smiles,measurement,setting,value
"c1ccc2c(Cc3c[nH]c4ccccc34)c[nH]c2c1 [DIM, 3,3′-diindolylmethane]",induction of ARE-luciferase,"[1]; 75 μM, 24 h, compared with any other treatment (p<0.05)",strongly induced
same,induction of ARE-luciferase,"[1]; doses lower than 25 μM, 10% FBS medium (data not shown)",no significant induction
same,PCNA staining (cell proliferation),PCNA,significantly lower levels
same,5-MC IHC staining of the prostate tissue,5-methylcytosine (5-MC),significantly decreased
same,DNMT1 protein level,DNMT1,suppressed
same,NQO1 protein levels,NQO1,significantly induced
same,Nrf2 protein levels,Nrf2,significantly induced
same,tolerability,[2],well tolerated with no significant toxicity
